Results taken from US5143906A, “Kedarcidin antitumor chromophore and pharmaceutical composition containing same” (Bristol-Myers Squibb Company, priority 1991, dated 1992).
“Also recorded” adds a separate entry of the source.

Tests used:
[1] = Stability in solution; format: physicochemical
[2] = system: ip implanted P388 leukemia; experiment: Antitumor activity against ip implanted P388 leukemia; format: in vivo, murine (CDF1 mice)
From the text: The P388 tumor was maintained in ascitic form in DBA/2 mice. Experimental tumor models used CDF^1 mice implanted via the intraperitoneal or intravenous route with 1×10^6 leukemia cells on day 0 and dosed with drugs according to the indicated route and schedule. Mice were weighed on day 0 and on day 5 or 6. Weight loss of 20% or greater was an indicator of drug toxicity. Each dose group consisted of 6 mice with 10 mice in the untreated control group. The dosing schedule was Q1DX1;1. Death checks were performed daily and the median life span of each group determined. […] Experiments were terminated on or about day 30.

[3] = system: sc implanted B16 melanoma; experiment: Antitumor activity against sc implanted B16 melanoma; format: in vivo, murine (BDF1 mice); conditions: for % T/C / Av. wgt. change / Med. surv. time / No. of mice alive on d 5: iv
Method: The B-16 murine melanoma was maintained as a subcutaneous growing tumor in C57BL/6 mice. Experimental tumor models used BDF^1 mice implanted with a 25 mg tumor fragment implanted subcutaneously via trochar on day 0. Kedarcidin chromophore was administered iv on a Q1DX1;1 schedule. Mice were weighed on day 0 and on day 9.

COc1c(OC(C)C)cc2cc(O)c(C(=O)N[C@@H]3CC(=O)OC[C@@H](O[C@H]4C[C@H](O)[C@H](N(C)C)[C@H](C)O4)/C4=C/C#C[C@@H]5O[C@]56C(=C[C@H](Oc5ccc3nc5Cl)[C@@H]6O[C@H]3C[C@@](C)(O)[C@@H](O)[C@H](C)O3)C#C4)cc2c1OC [Kedarcidin chromophore]
Stability [1]: Very unstable | Decomposition in solution ([1]; in solution with benzene, methanol, chloroform and DMSO): Decomposes within hours | % T/C ([2]; Exp. 8305, 0.125 mg/kg/dose): 145% | Av. wgt. change ([2]; Exp. 8305, 0.125 mg/kg/dose): 0.1 g | Med. surv. time ([2]; Exp. 8305, 0.125 mg/kg/dose): 14.5 | No. of mice alive on d 5 ([2]; Exp. 8305, 0.125 mg/kg/dose): 6/6 | % T/C ([2]; Exp. 8305, 0.25 mg/kg/dose): 150% | Av. wgt. change ([2]; Exp. 8305, 0.25 mg/kg/dose): -0.4 g | Med. surv. time ([2]; Exp. 8305, 0.25 mg/kg/dose): 15.0 | No. of mice alive on d 5 ([2]; Exp. 8305, 0.25 mg/kg/dose): 6/6 | % T/C ([2]; Exp. 8305, 0.5 mg/kg/dose): 165% | Av. wgt. change ([2]; Exp. 8305, 0.5 mg/kg/dose): -0.5 g | Med. surv. time ([2]; Exp. 8305, 0.5 mg/kg/dose): 16.5 | No. of mice alive on d 5 ([2]; Exp. 8305, 0.5 mg/kg/dose): 6/6 | % T/C ([2]; Exp. 8305, 1 mg/kg/dose): 175% | Av. wgt. change ([2]; Exp. 8305, 1 mg/kg/dose): -0.3 g | Med. surv. time ([2]; Exp. 8305, 1 mg/kg/dose): 17.5 | No. of mice alive on d 5 ([2]; Exp. 8305, 1 mg/kg/dose): 6/6 | % T/C ([2]; Exp. 8305, 2 mg/kg/dose): 105% | Av. wgt. change ([2]; Exp. 8305, 2 mg/kg/dose): -2.2 g | Med. surv. time ([2]; Exp. 8305, 2 mg/kg/dose): 10.5 | No. of mice alive on d 5 ([2]; Exp. 8305, 2 mg/kg/dose): 6/6 | % T/C ([2]; Exp. 8305, 4 mg/kg/dose): 90% | Av. wgt. change ([2]; Exp. 8305, 4 mg/kg/dose): -3.6 g | Med. surv. time ([2]; Exp. 8305, 4 mg/kg/dose): 9.0 | No. of mice alive on d 5 ([2]; Exp. 8305, 4 mg/kg/dose): 6/6 | optimal dose ([2]; Exp. 8305, ip one day after tumor implant): 1 mg/kg/inj | % T/C ([2]; Exp. 8328, 0.25 mg/kg/dose): 185% | Av. wgt. change ([2]; Exp. 8328, 0.25 mg/kg/dose): -0.4 g | Med. surv. time ([2]; Exp. 8328, 0.25 mg/kg/dose): 18.5 | No. of mice alive on d 5 ([2]; Exp. 8328, 0.25 mg/kg/dose): 6/6 | % T/C ([2]; Exp. 8328, 0.5 mg/kg/dose): 130% | Av. wgt. change ([2]; Exp. 8328, 0.5 mg/kg/dose): -1.1 g | Med. surv. time ([2]; Exp. 8328, 0.5 mg/kg/dose): 13.0 | No. of mice alive on d 5 ([2]; Exp. 8328, 0.5 mg/kg/dose): 6/6 | % T/C ([2]; Exp. 8328, 1.0 mg/kg/dose): 90% | Av. wgt. change ([2]; Exp. 8328, 1.0 mg/kg/dose): -2.3 g | Med. surv. time ([2]; Exp. 8328, 1.0 mg/kg/dose): 9.0 | No. of mice alive on d 5 ([2]; Exp. 8328, 1.0 mg/kg/dose): 6/6 | % T/C ([2]; Exp. 8328, 2.0 mg/kg/dose): TOX | Av. wgt. change ([2]; Exp. 8328, 2.0 mg/kg/dose): -1.9 g | Med. surv. time ([2]; Exp. 8328, 2.0 mg/kg/dose): TOX | No. of mice alive on d 5 ([2]; Exp. 8328, 2.0 mg/kg/dose): 2/6 | optimal dose ([2]; Exp. 8328, ip, Q1DX1;1): 0.25 mg/kg/inj | activity by the lifespan criterion ([3]; Exp. 796): active by the lifespan criterion | activity by the tumor growth delay criterion ([3]; Exp. 796): Neither kedarcidin chromophore or kedarcidin were active | optimum dose ([3]; Exp. 796, iv one day after tumor implant): 0.062 mg/kg/inj | % T/C ([3]; Exp. 796, 0.062 mg/kg/dose): 164% | Av. wgt. change ([3]; Exp. 796, 0.062 mg/kg/dose): 1.1 g | Med. surv. time ([3]; Exp. 796, 0.062 mg/kg/dose): 41.0 | No. of mice alive on d 5 ([3]; Exp. 796, 0.062 mg/kg/dose): 8/8 | % T/C ([3]; Exp. 796, 0.125 mg/kg/dose): 126% | Av. wgt. change ([3]; Exp. 796, 0.125 mg/kg/dose): 1.1 g | Med. surv. time ([3]; Exp. 796, 0.125 mg/kg/dose): 31.5 | No. of mice alive on d 5 ([3]; Exp. 796, 0.125 mg/kg/dose): 8/8 | % T/C ([3]; Exp. 796, 0.25 mg/kg/dose): TOX | Av. wgt. change ([3]; Exp. 796, 0.25 mg/kg/dose): -1.0 g | Med. surv. time ([3]; Exp. 796, 0.25 mg/kg/dose): TOX | No. of mice alive on d 5 ([3]; Exp. 796, 0.25 mg/kg/dose): 2/8 | % T/C ([3]; Exp. 796, 0.5 mg/kg/dose): TOX | Med. surv. time ([3]; Exp. 796, 0.5 mg/kg/dose): TOX | No. of mice alive on d 5 ([3]; Exp. 796, 0.5 mg/kg/dose): 0/8 | activity and potency compared to kedarcidin ([3]; conclusion, compared directly): as active as, and slightly more potent than, kedarcidin | antitumor activity by lifespan criterion ([3]; sc implanted B16, conclusion): significant antitumor activity; also recorded: in vivo antitumor activity
